The target in one test is CDK2/CycA (Homo sapiens (Human), UniProt P24941). The test can be described thus: LANCE Ultra kinase activity inhibition assay, CDK2/CycA. To be noted: ATP 10 μM, highest compound concentration 10 μM. Type of test: biochemical. The text has this: (§1) In the following LANCE Ultra test methods, kinase reagents were purchased from Carna Bioscience, reaction substrates and detection reagents were purchased from PerkinElmer, and the remaining reagents were purchased from Thermo scientific.
(§2) The assay for each kinase includes three test groups, i.e., a background group (Blank), a non-inhibition group (PC), and compound testing group (Test). The components included in each test group were as follows:
(§3) Working concentrations of the respective components of the Test groups in different kinase reactions were as follows.
(§4) Compounds: 10 mM of the compound to be tested was dissolved at room temperature and diluted with DMSO to gradient concentrations, followed by diluting with deionized water to prepare a 4× working solution of the compound, and the content of DMSO was 2%. The highest concentration of compound used in the CDK1 and CDK2 assays was 10 μM, and that in CDK9 assay was 1 μM.
(§5) The working concentration of DMSO in the reaction was 0.5%.
(§6) The above-mentioned components, after being mixed, were placed on a shaker and incubated at room temperature in the dark for 1 h. 10 μL of test solution was then added to all test groups (including Blank, PC and Test groups).
(§7) After the test solution was added, the solution was placed on a shaker and continually incubated at room temperature for 1 h in the dark. […] The inhibition rate was calculated as below.
(§8) 2. Inhibition rate=(PCRatio-TestRatio)/(PCRatio-BlankRatio)*100%; and
(§9) 3. XLFIT 5.0 software (IDBS, UK) was used to fit a graph by using the logarithmic value of the compound concentration as the X-axis and the inhibition rater as the Y-axis, and a four-parameter model was used to calculate the half inhibitory concentration IC50 of the compound.
CDK1/CycB, sequence (P06493 whole entry): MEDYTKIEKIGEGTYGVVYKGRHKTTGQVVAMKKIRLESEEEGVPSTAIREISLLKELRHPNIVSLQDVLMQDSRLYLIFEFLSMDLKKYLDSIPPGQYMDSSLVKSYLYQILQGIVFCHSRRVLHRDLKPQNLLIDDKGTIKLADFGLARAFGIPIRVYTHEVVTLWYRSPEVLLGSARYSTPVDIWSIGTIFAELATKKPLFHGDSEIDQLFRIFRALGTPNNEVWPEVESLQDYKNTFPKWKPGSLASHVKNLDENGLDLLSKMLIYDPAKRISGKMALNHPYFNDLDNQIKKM
CDK1/CycB, sequence (P14635 whole entry partner): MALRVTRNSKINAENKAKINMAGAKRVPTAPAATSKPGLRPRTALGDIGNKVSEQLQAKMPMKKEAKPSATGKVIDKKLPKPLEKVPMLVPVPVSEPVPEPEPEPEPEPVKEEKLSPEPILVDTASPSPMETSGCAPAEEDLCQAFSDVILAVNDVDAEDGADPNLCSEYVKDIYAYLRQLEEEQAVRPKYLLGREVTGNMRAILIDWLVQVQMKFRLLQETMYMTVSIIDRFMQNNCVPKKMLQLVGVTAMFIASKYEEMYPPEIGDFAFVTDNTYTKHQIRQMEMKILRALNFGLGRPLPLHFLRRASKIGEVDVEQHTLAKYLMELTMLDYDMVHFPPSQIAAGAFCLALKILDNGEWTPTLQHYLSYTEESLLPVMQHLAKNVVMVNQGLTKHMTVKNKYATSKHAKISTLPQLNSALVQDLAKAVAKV
`CC(c1cc(N[C@H]2C[C@@H](N)C2)n2nccc2n1)C1CC1` (stereo partly drawn) [Compound Z-74]: the IC50 was > 10 µM.
Same read-out and setting: as for `C=CC(C)(C)c1cc(N[C@H]2CC[C@H](N)C2)n2ncc(C)c2n1` [Compound Z-19], the figure is > 10 µM.
Turning to `Cc1cnn2c(N[C@H]3CC[C@H](N)C3)cc(C(C)(C)C3CC3)nc12` [Compound Z-34], the IC50 was > 10 µM.
In turn, `CC(c1cc(NC2CCN(N)C2)n2ncc(Cl)c2n1)C1CC1` (stereo not drawn) [Compound Z-47] registered an IC50 of 1.91 µM.
The same measure, in the same setting: as for `N[C@H]1CC[C@H](Nc2cc(CC3CC3)nc3ccnn23)C1` [Compound Z-3], the figure is > 10 µM.
As for `CC(c1cc(N[C@H]2CC[C@H](NC(=N)N)C2)n2ncc(Cl)c2n1)C1CC1` (stereo partly drawn) [Compound Z-65], the concentration for half-maximal inhibition (IC50) came to 2.3 µM.
On the same count and under the same terms, as for `COC(c1cc(N[C@H]2CC[C@H](N)C2)n2nccc2n1)C1CC1` (stereo partly drawn) [Compound Z-49], the figure is > 10 µM; as for `C[C@@H](c1cc(N[C@H]2CC[C@H](N)C2)n2nccc2n1)C1(C)CC1` [Compound Z-27-P1], > 10 µM.
Same read-out and setting: as for `N[C@H]1CC[C@H](Nc2cc(CC3CCC3)nc3ccnn23)C1` [Compound Z-50], the figure is > 10 µM; as for `N[C@H]1CC[C@H](Nc2cc(C(F)(F)C3CC3)nc3ccnn23)C1` [Compound Z-37], > 10 µM.
The same measure, in the same setting: the value for `N[C@H]1CC[C@H](Nc2cc(CC3CC3)nc3c(Cl)cnn23)C1` [Compound Z-55] was 1.91 µM; that for `CC[C@H](c1cc(N[C@H]2CC[C@H](N)C2)n2nccc2n1)C1CC1` [Compound Z-28-P2] was > 10 µM; that for `CC[C@@H](c1cc(N[C@H]2CC[C@H](N)C2)n2ncc(C)c2n1)C1CC1` [Compound Z-30-P2] was 4.91 µM.
The compound `CC(c1cc(N[C@H]2C[C@H](N)C2)n2nccc2n1)C1CC1` (stereo partly drawn) [Compound Z-62] had an IC50 of 4.72 µM.
Still for that read-out and setting: as for `CC(c1cc(NC2CCNC2)n2ncc(F)c2n1)C1CC1` (stereo not drawn) [Compound Z-31], the figure is 6.39 µM.
Turning to `CCC(c1cc(N[C@H]2CC[C@H](NC(=N)N)C2)n2nccc2n1)C1CC1` (stereo partly drawn) [Compound Z-67], the IC50 is > 10 µM.
In the case of `Cc1cnn2c(N[C@H]3CC[C@H](N)C3)cc([C@H](C)C3(C)CC3)nc12` [Compound Z-26-P1], the IC50 was found to be 1.8 µM.
`N[C@H]1CC[C@H](Nc2cc(CC3CC3)nc3c(F)cnn23)C1` [Compound Z-54]: the IC50 came out at 2.65 µM.
On the same count and under the same terms, as for `C=CC(C)(C)c1cc(N[C@H]2CC[C@H](N)C2)n2nccc2n1` [Compound Z-18], the figure is > 10 µM.

A further test concerns the target CDK1/CycB (Homo sapiens (Human), UniProt P06493). The test can be described thus: LANCE Ultra kinase activity inhibition assay, CDK1/CycB. It is filed as biochemical. To be noted: ATP 4 μM, highest compound concentration 10 μM.
Source text: as §1, §2, §3, §4, §5, §6, §7, §8, §9
Regarding `CC(c1cc(N[C@H]2C[C@@H](N)C2)n2nccc2n1)C1CC1` (stereo partly drawn) [Compound Z-74], the IC50 is > 10 µM.
The same measure, in the same setting: as for `C=CC(C)(C)c1cc(N[C@H]2CC[C@H](N)C2)n2ncc(C)c2n1` [Compound Z-19], the figure is > 10 µM; as for `Cc1cnn2c(N[C@H]3CC[C@H](N)C3)cc(C(C)(C)C3CC3)nc12` [Compound Z-34], 8.09 µM.
Same read-out and setting: as for `CC(c1cc(NC2CCN(N)C2)n2ncc(Cl)c2n1)C1CC1` (stereo not drawn) [Compound Z-47], the figure is 1.04 µM; as for `N[C@H]1CC[C@H](Nc2cc(CC3CC3)nc3ccnn23)C1` [Compound Z-3], > 10 µM; as for `CC(c1cc(N[C@H]2CC[C@H](NC(=N)N)C2)n2ncc(Cl)c2n1)C1CC1` (stereo partly drawn) [Compound Z-65], 1.24 µM.
On the same count and under the same terms, the value for `COC(c1cc(N[C@H]2CC[C@H](N)C2)n2nccc2n1)C1CC1` (stereo partly drawn) [Compound Z-49] was > 10 µM.
With `C[C@@H](c1cc(N[C@H]2CC[C@H](N)C2)n2nccc2n1)C1(C)CC1` [Compound Z-27-P1], 1.21 µM corresponded to half-maximal inhibition (IC50).
On the same count and under the same terms, as for `N[C@H]1CC[C@H](Nc2cc(CC3CCC3)nc3ccnn23)C1` [Compound Z-50], the figure is 6.57 µM; as for `N[C@H]1CC[C@H](Nc2cc(C(F)(F)C3CC3)nc3ccnn23)C1` [Compound Z-37], 7.18 µM; as for `N[C@H]1CC[C@H](Nc2cc(CC3CC3)nc3c(Cl)cnn23)C1` [Compound Z-55], 1.94 µM.
For `CC[C@H](c1cc(N[C@H]2CC[C@H](N)C2)n2nccc2n1)C1CC1` [Compound Z-28-P2], the IC50 came out at 2.39 µM.
On the same count and under the same terms, as for `CC[C@@H](c1cc(N[C@H]2CC[C@H](N)C2)n2ncc(C)c2n1)C1CC1` [Compound Z-30-P2], the figure is 3.54 µM.
Still for that read-out and setting: as for `CC(c1cc(N[C@H]2C[C@H](N)C2)n2nccc2n1)C1CC1` (stereo partly drawn) [Compound Z-62], the figure is 1.54 µM; as for `CC(c1cc(NC2CCNC2)n2ncc(F)c2n1)C1CC1` (stereo not drawn) [Compound Z-31], 3.21 µM.
With `CCC(c1cc(N[C@H]2CC[C@H](NC(=N)N)C2)n2nccc2n1)C1CC1` (stereo partly drawn) [Compound Z-67], the IC50 turned out to be 4.59 µM.
Same read-out and setting: the value for `Cc1cnn2c(N[C@H]3CC[C@H](N)C3)cc([C@H](C)C3(C)CC3)nc12` [Compound Z-26-P1] was 1.62 µM; that for `N[C@H]1CC[C@H](Nc2cc(CC3CC3)nc3c(F)cnn23)C1` [Compound Z-54] was 2.16 µM.
Still for that read-out and setting: the value for `C=CC(C)(C)c1cc(N[C@H]2CC[C@H](N)C2)n2nccc2n1` [Compound Z-18] was 4.2 µM.

The target of another test is CDK9/CycT (Homo sapiens (Human), UniProt P50750). The test can be described thus: LANCE Ultra kinase activity inhibition assay, CDK9/CycT. It is filed as biochemical. To be noted: ATP 10 μM, highest compound concentration 1 μM. The procedure: as §1
CDK9/CycT, sequence (P50750 whole entry): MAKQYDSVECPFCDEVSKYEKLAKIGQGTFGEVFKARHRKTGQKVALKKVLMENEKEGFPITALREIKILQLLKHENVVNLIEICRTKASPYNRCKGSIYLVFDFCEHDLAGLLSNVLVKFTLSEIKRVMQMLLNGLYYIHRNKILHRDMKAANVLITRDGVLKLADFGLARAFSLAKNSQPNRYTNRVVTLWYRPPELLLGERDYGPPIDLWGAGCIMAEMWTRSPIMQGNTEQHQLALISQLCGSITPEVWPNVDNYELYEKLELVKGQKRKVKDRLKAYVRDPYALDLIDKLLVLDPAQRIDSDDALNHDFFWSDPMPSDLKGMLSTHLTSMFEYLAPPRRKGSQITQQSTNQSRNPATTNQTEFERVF
CDK9/CycT, sequence (O60563 whole entry partner): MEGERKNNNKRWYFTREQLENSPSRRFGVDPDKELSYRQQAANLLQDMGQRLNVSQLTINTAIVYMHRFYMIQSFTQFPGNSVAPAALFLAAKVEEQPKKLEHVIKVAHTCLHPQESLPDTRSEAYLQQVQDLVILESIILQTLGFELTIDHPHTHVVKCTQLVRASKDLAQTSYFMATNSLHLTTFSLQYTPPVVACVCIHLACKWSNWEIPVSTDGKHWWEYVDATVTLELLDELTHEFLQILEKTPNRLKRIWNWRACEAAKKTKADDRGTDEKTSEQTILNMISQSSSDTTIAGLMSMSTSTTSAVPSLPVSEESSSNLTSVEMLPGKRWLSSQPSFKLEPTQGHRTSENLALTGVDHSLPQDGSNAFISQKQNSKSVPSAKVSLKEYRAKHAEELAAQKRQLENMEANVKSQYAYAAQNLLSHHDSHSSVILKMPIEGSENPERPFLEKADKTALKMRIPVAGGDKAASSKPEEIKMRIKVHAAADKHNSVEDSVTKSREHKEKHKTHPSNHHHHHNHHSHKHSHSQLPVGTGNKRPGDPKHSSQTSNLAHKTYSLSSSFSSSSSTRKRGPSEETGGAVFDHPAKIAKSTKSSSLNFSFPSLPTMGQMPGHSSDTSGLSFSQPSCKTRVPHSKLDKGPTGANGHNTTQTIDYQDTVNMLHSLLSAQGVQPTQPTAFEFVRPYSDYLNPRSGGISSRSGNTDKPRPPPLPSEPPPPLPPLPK
The inhibiting effects on the kinase activity of CDK1/CycB (Carna bioscience, #04-102), CDK2/CycA (Carna bioscience, #04-103) and CDK9/CycT (Carna bioscience, #04-110) were determined by using LANCE Ultra method.
The kinase activity test was performed using a system (10 μL) containing the following components: substrate diluent prepared by mixing CDK kinase diluent, Ulight-Myelic basic protein (Perkin Elmer, #TRF-0109, hereinafter referred to as U-MBP) and ATP (Thermo scientific, #PV3227); and the compounds (i.e., analyte) prepared in the examples of the present disclosure. The assay for each kinase includes three test groups, i.e., a background group (Blank), a non-inhibition group (PC), and compound testing group (Test). The components included in each test group were as follows:
as §3, §4
1.33×reaction buffer: the components include 26.7 mM of MOPS, 6.67 mM of MgCl2, and 0.0133% Tween-20, which were stored in a 4° C. refrigerator and protected from light after preparation. Freshly prepared DTT was added to a final concentration of 5.33 mM before use.
as §5, §6
10 μL of test solution contains the following components: 16 mM of EDTA (Thermo scientific, #15575), 1 nM of phosphorylated U-MBP protein antibody (Perkin Elmer, #TRF-0201), and 1× detection damping fluid (Perkin Elmer, #CR97-100).
After the test solution was added, the solution was placed on a shaker and continually incubated at room temperature for 1 h in the dark. At the end of incubation, Victor X5 fluorescence microplate reader of Perkin Elmer was used to read the signal; the wavelength of excitation light was 320 nm, and the wavelengths of emission light were 615 nm and 665 nm. The inhibition rate was calculated as below.
1. For all groups, a value of 665 nm/615 nm (hereinafter referred to as Ratio) was calculated, and an inhibition rate was calculated based on the Ratio of each group;
as §8, §9
In turn, `CC(c1cc(N[C@H]2C[C@@H](N)C2)n2nccc2n1)C1CC1` (stereo partly drawn) [Compound Z-74] registered an IC50 of 0.417 µM.
With `C=CC(C)(C)c1cc(N[C@H]2CC[C@H](N)C2)n2ncc(C)c2n1` [Compound Z-19], the IC50 turned out to be 0.092 µM.
Still for that read-out and setting: as for `Cc1cnn2c(N[C@H]3CC[C@H](N)C3)cc(C(C)(C)C3CC3)nc12` [Compound Z-34], the figure is 0.036 µM; as for `CC(c1cc(NC2CCN(N)C2)n2ncc(Cl)c2n1)C1CC1` (stereo not drawn) [Compound Z-47], 0.035 µM.
The same measure, in the same setting: the value for `N[C@H]1CC[C@H](Nc2cc(CC3CC3)nc3ccnn23)C1` [Compound Z-3] was 0.073 µM; that for `CC(c1cc(N[C@H]2CC[C@H](NC(=N)N)C2)n2ncc(Cl)c2n1)C1CC1` (stereo partly drawn) [Compound Z-65] was 0.019 µM.
Same read-out and setting: as for `COC(c1cc(N[C@H]2CC[C@H](N)C2)n2nccc2n1)C1CC1` (stereo partly drawn) [Compound Z-49], the figure is 0.062 µM; as for `C[C@@H](c1cc(N[C@H]2CC[C@H](N)C2)n2nccc2n1)C1(C)CC1` [Compound Z-27-P1], 0.047 µM; as for `N[C@H]1CC[C@H](Nc2cc(CC3CCC3)nc3ccnn23)C1` [Compound Z-50], 0.064 µM.
In the case of `N[C@H]1CC[C@H](Nc2cc(C(F)(F)C3CC3)nc3ccnn23)C1` [Compound Z-37], the concentration for half-maximal inhibition (IC50) came to 0.027 µM.
On the same count and under the same terms, as for `N[C@H]1CC[C@H](Nc2cc(CC3CC3)nc3c(Cl)cnn23)C1` [Compound Z-55], the figure is 0.015 µM; as for `CC[C@H](c1cc(N[C@H]2CC[C@H](N)C2)n2nccc2n1)C1CC1` [Compound Z-28-P2], 0.012 µM.
`CC[C@@H](c1cc(N[C@H]2CC[C@H](N)C2)n2ncc(C)c2n1)C1CC1` [Compound Z-30-P2] showed an IC50 of 0.022 µM.
Same read-out and setting: as for `CC(c1cc(N[C@H]2C[C@H](N)C2)n2nccc2n1)C1CC1` (stereo partly drawn) [Compound Z-62], the figure is 0.017 µM.
Same read-out and setting: as for `CC(c1cc(NC2CCNC2)n2ncc(F)c2n1)C1CC1` (stereo not drawn) [Compound Z-31], the figure is 0.104 µM.
`CCC(c1cc(N[C@H]2CC[C@H](NC(=N)N)C2)n2nccc2n1)C1CC1` (stereo partly drawn) [Compound Z-67] showed a half-maximal inhibitory concentration (IC50) of 0.044 µM.
The same measure, in the same setting: as for `Cc1cnn2c(N[C@H]3CC[C@H](N)C3)cc([C@H](C)C3(C)CC3)nc12` [Compound Z-26-P1], the figure is 0.005 µM.
On the same count and under the same terms, the value for `N[C@H]1CC[C@H](Nc2cc(CC3CC3)nc3c(F)cnn23)C1` [Compound Z-54] was 0.016 µM; that for `C=CC(C)(C)c1cc(N[C@H]2CC[C@H](N)C2)n2nccc2n1` [Compound Z-18] was 0.033 µM.

(Values after patent US20240109898A1, “SUBSTITUTED PYRAZOLO[1,5-A]PYRIMIDINE-7-AMINE DERIVATIVES, COMPOSITIONS AND PHARMACEUTICAL USES THEREOF” (SHANGHAI HAIYAN PHARMACEUTICAL TECHNOLOGY CO., LTD., priority 2021, published 2024).)
